Legend:
Assay type in all cases: cell-based
[1] = tested on: Candida albicans ATCC 10231; assay: Bactericidal effect of antimicrobial composition against Candida albicans
Procedure: 1) Testing strain: Candida albicans ATCC 10231, the 5-6 generations; provide by the “Reserve Center of Chinese Microbial Reservation Committee”.
The testing sample was diluted for 2, 4, 8, 16, 32, 64, 128 and […] times using standard hard water, then reacted with ATCC 10231 for 1 min, 5 min, 10 min.
(§1) 2. Testing Methods and Standards:
(§2) <<Technical Standard for Disinfection>> (2002 Edition)
(§3) GB15979-2002 <<Technical standard for testing disinfection product>> “Procedures for testing bactericide effect”
The bactericidal effect of antimicrobial composition against Candida albicans ATCC10231 at 20±1° C. temperature is shown in table 6.

[2] = tested on: Staphylococcus aureus ATCC6538; assay: Bactericide effect of antimicrobial composition against Staphylococcus aureus
Procedure: 1) Testing strain: Staphylococcus aureus ATCC6538, 5-6th generations, provided by the reserve center of China microbial reservation committee.
The testing sample was diluted for 2, 4, 8, 16, 32, 64, 128 and […] folds using standard hard water, then reacted with ATCC6538 for 1 min, 5 min, 10 min.
as §1, §2, §3

Eschetichia coli 8099 = assay: Bactericide effect of antimicrobial composition against Eschetichia coli
Procedure: 1) Testing strain: Eschetichia coli 8099, the 5-6 generations were used; provide by the “Reserve Center of Chinese Microbial Reservation Committee”.
The testing sample was diluted for 2, 4, 8, 16, 32, 64, 128 and 256 folds using standard hard water, then reacted with Eschetichia coli 8099 for 1 min, 5 min, 10 min.
as §1, §2, §3

## N,N-di-n-decyl-N,N-dimethyl-ammonium 5-oxopyrrolidine-2-carboxylate [DDAPC]
[1]; reacted 1 min
  minimum inhibiting concentrations: 0.0016%
[1]; reacted 5 min
  minimum inhibiting concentrations: 0.0008%
[1]; reacted 10 min
  minimum inhibiting concentrations: 0.0004%
[2]; reacted 1 min
  minimum inhibiting concentrations: 0.0016%
[2]; reacted 5 min
  minimum inhibiting concentrations: 0.0004%
[2]; reacted 10 min
  minimum inhibiting concentrations: 0.0004%
Eschetichia coli 8099; reacted 1 min
  minimum inhibiting concentrations: 0.006%
Eschetichia coli 8099; reacted 5 min
  minimum inhibiting concentrations: 0.003%
Eschetichia coli 8099; reacted 10 min
  minimum inhibiting concentrations: 0.003%
